Reference: US20070088043A1, “Novel HDAC inhibitors” (ORCHID RESEARCH LABORATORIES LIMITED., priority 2005, published 2007)

Key:
[1] = test system: NCIH460, HCT116, MDAMB231/U251; test: Anti-cancer screen, mean GI50 over the cell lines; type: cell-based; conditions: in µM
Method: (§1) Experimental drugs are screened for anti-cancer activity in three cell lines for their GI50, TGI and LC50 values (using five concentrations for each compound). The cell lines are maintained in DMEM containing 10% fetal bovine serum. 96 well micro titer plates are inoculated with cells in 100 μL for 24 h at 37° C., 5% CO2, 95% air and 100% relative humidity. 5000 HCT 116 cells/well, 5000 NCIH 460 cells/well and 5000 U251 cells/well are plated. A separate plate with these cell lines is also inoculated to determine cell viability before the addition of the compounds (T0).
(§2) Following 24-hour incubation, experimental drugs are added to the 96 well plates. Each plate contains one of the above cell lines and the following in triplicate: five different concentrations (0.01, 0.1, 1, 10 and 100 μM) of four different compounds, appropriate dilutions of a cytotoxic standard and control (untreated) wells. Compounds are dissolved in DMSO to make 20 mM stock solutions on the day of drug addition and frozen at −20° C. Serial dilutions of these 20 mM stock solutions are made in complete growth medium such that 100 μL of these drug solutions in medium, of final concentrations equaling 0.01, 0.1, 1, 10 and 100 μM can be added to the cells in triplicate. Standard drugs whose anti-cancer activity has been well documented and which are regularly used are doxorubicin and SAHA.
(§3) For To measurement, 24 hours after seeding the cells, 10 μL of 3-(4,5-Dimethyl-2-thiazolyl)-2,5-diphenyl-2H-tetrazolium (MTT) solution per well is added and incubation carried out for 3 hours at 37° C., 5% CO2, 95% air and 100% relative humidity, protected from light. Cells incubated with compounds for 48 hours are treated similarly except with the addition of 20 μL MTT solution per well and a subsequent incubation under the same conditions. After 3 hours of MTT incubation, well contents are aspirated carefully followed by addition of 150 μL DMSO per well. Plates are agitated to ensure solution of the formazan crystals in DMSO and absorbance read at 570 nm. […]

[2] = test system: MDAMB231/U251; test: Anti-cancer screen (MTT), MDAMB231/U251; type: cell-based; conditions: MDAMB231/U251 cells, 48 hours; for GI50: concentration to decrease % growth by 50%; for IC100: concentration to decrease % growth by 100%, read-out: MDAMB231/U251 TGI; for LC50: concentration to decrease % growth by 150%
Method: as §1, §2, §3

[3] = test system: HDAC (Mouse Liver Extract); test: Histone Deacetylase (HDAC) Inhibition Assay using Boc-Lys (Ac)-AMC Substrate; type: biochemical; conditions: mouse liver enzyme, NA = No Activity; for HDAC Inhibition 1 μM / HDAC Inhibition 10 μM: in % (unit assumed)
From the text: HDAC Activitv Screening: Histone Deacetylase (HDAC) Inhibition Assay using Boc-Lys (Ac)-AMC Substrate:
Inhibition of HDAC has been implicated to modulate transcription and to induce apoptosis or differentiation in cancer cells. The fluorometric assay provides a fast and fluorescence based method that eliminates radioactivity, extractions or chromatography, as used in traditional assays. The assay based on two steps. First, the HDAC fluorometric substrate, which comprises an acetylated lysine side chain, is incubated with a sample containing HDAC activity (Mouse Liver Extract). Deacetylation of the substrate sensitizes the substrate, in the second step; treatment with the Trypsin stop solution produces a fluorophore that can be easily analyzed using fluorescence plate reader.
Assay was done in 96 well black microplate and total volume of the assay is 100 ul. Mouse liver enzyme is diluted 1:6 with HDAC buffer. Enzyme cocktail made of 10 ul of diluted enzyme and 30 ul of HDAC buffer. 40 ul of enzyme cocktail dispensed into each well. 10 ul of different concentrations of inhibitor added in to each well, except enzyme control well. Preincubated the plate at 30° C. for 5 minutes. The HDAC reaction is started by adding 50 ul of HDAC substrate (Boc-Lys (Ac)-AMC Substrate) solution. Incubated the plate at 30° C. for 30 minutes. Adding 100 ul of Trypsin stop solution stops the reaction. The plate is incubated again at 30° C. for 20-30 minutes. The release of AMC is monitored by measuring the fluorescence at excitation wavelength of 365 or 360 nm and emission wavelength of 440 or 460 nm. Buffer and substrate alone kept for blank subtraction. (Dennis Wegener et al, Anal. Biochem, 321, 2003, 202-208).

[4] = test system: NCIH 460 cells; test: Anti-cancer screen (MTT), NCIH460; type: cell-based; conditions: Homo sapiens, NCI-H460, NCIH460 cells, 48 hours, MTT; for GI50: concentration to decrease % growth by 50%; for IC100: concentration to decrease % growth by 100%, read-out: NCIH460 TGI; for LC50: concentration to decrease % growth by 150%
Method: as §1, §2, §3

[5] = test system: HCT 116 cells; test: Anti-cancer screen (MTT), HCT116; type: cell-based; conditions: Homo sapiens, HCT-116, HCT116 cells, 48 hours, MTT; for GI50: concentration to decrease % growth by 50%; for IC100: concentration to decrease % growth by 100%, read-out: HCT116 TGI; for LC50: concentration to decrease % growth by 150%
Method: as §1, §2, §3

| SMILES | Mean GI50 [1] | GI50 [2] [µM] | IC100 [2] [µM] | LC50 [2] [µM] | HDAC Inhibition 1 μM [3] | HDAC Inhibition 10 μM [3] | GI50 [4] [µM] | IC100 [4] [µM] | LC50 [4] [µM] | GI50 [5] [µM] | IC100 [5] [µM] | LC50 [5] [µM] | IC50 [3] [µM] |
| --- | --- | --- | --- | --- | --- | --- | --- | --- | --- | --- | --- | --- | --- |
| CC(=O)SCCCCC(=O)N1CCN(C(=O)CNc2nc3ccccc3s2)CC1 [Example 1, N-{2-[4-(5-thioacetylpentanoyl)piperazin-1-yl]-2-oxoethyl}-1,3-benzothiazol-2-amine] | >100 | 80 | > 100 | > 100 | 10.48 | 38.59 | > 100 | > 100 | > 100 | > 100 | > 100 | > 100 | – |
| CC(=O)SCCCCCC(=O)N1CCN(C(=O)CN2CCOCC2)CC1 [Example 2] | >100 | > 100 | > 100 | > 100 | 8.31 | 34.56 | > 100 | > 100 | > 100 | > 100 | > 100 | > 100 | – |
| CC(=O)SCCCCCC(=O)N1CCN(C(=O)CNc2nc3ccc(C)cc3s2)CC1 [Example 3, N-{2-[4-(6-thioacetylhexanoyl)piperazin-1-yl]-2-oxoethyl}-6-methyl-1,3-benzo thiazol-2-amine] | >100 | 48 | > 100 | > 100 | 42.40 | 86.74 | > 100 | > 100 | > 100 | 49 | 99 | > 100 | – |
| CC(=O)SCCCCC(=O)N1CCN(CC(=O)Nc2nc(C)cs2)CC1 [Example 4, 2-[4-(5-Thioacetylpentanoyl)piperazin-1-yl]-N-(4-methyl-1,3-thiazol-2-yl)acetamide] | 38 | 45 | > 100 | > 100 | 15.82 | 50.88 | 9 | 91 | > 100 | 60 | > 100 | > 100 | – |
| CC(=O)SCCCCCC(=O)N1CCN(CC(=O)Nc2nc3ccccc3s2)CC1 [Example 6, 2-[4-(6-Thioacetylhexanoyl)piperazin-1-yl]-N-(1,3-benzothiazol-2-yl)acetamide] | 2.00 | 0.01 | 0.4 | > 100 | 63.40 | 83.30 | 0.8 | 53 | > 100 | 4.5 | 42 | > 100 | 0.062 |
| CC(=O)SCCCCC(=O)N1CCN(CC(=O)Nc2nccs2)CC1 [Example 7, 2-[4-(5-Thioacetylpentanoyl)piperazin-1-yl]-N-(1,3-thiozole-2-yl)acetamide] | 67.50 | > 100 | > 100 | > 100 | 27.76 | 45.96 | 50 | 88 | > 100 | 85 | > 100 | > 100 | – |
| CC(=O)SCCCCC(=O)N1CCN(CC(=O)Nc2nc3ccccc3s2)CC1 [Example 8, 2-[4-(5-Thioacetylpentanoyl)piperazin-1-yl]-N-(1,3-benzothiazol-2-yl)acetamide] | 12.50 | > 100 | > 100 | > 100 | 31.41 | 69.85 | 18 | > 100 | > 100 | 7 | 80 | > 100 | – |
| Cc1cccc2sc(NC(=O)CN3CCN(C(=O)CCCCCNO)CC3)nc12 [Example 27] | 14.70 | 28 | 80 | > 100 | – | – | 8 | > 100 | > 100 | 8 | > 100 | > 100 | – |
| COc1cccc2sc(NC(=O)CN3CCN(C(=O)CCCCCN(OCc4ccccc4)C(C)=O)CC3)nc12 [Example 28, N-4-methoxy-1,3-benzothiazol-2-yl-2-{6-[6 (N-acetyl-O-benzyl)hexanoyl]piperazin-1-yl}acetamide] | 8.86 | 0.08 | 9 | > 100 | – | – | 21 | > 100 | > 100 | 5.5 | 58 | > 100 | – |
| CSCC[C@@H](N)C(=O)NCCCCCC(=O)N1CCN(CC(=O)Nc2nc3ccccc3s2)CC1 [Example 42] | 61 | 99.5 | > 100 | > 100 | – | – | 56 | > 100 | > 100 | 26 | 78 | > 100 | – |
